Drawing on ChEMBL document CHEMBL3217452, “Design, synthesis, and structureactivity relationships of 1,3,4-oxadiazol-2(3H)-ones as novel FAAH inhibitors” (Medchemcomm, 2011), this text covers IC50 and residual activity for 27 molecules.

For orientation: IC50 means the concentration at which inhibition is half-maximal. A lower IC50 goes with greater potency. In general, residual activity refers to the signal under treatment as a percentage of the control signal.

Assay [1] deals with T1, Fatty-acid amide hydrolase 1 (Homo sapiens, UniProt O00519).
T1 sequence (O00519 whole entry): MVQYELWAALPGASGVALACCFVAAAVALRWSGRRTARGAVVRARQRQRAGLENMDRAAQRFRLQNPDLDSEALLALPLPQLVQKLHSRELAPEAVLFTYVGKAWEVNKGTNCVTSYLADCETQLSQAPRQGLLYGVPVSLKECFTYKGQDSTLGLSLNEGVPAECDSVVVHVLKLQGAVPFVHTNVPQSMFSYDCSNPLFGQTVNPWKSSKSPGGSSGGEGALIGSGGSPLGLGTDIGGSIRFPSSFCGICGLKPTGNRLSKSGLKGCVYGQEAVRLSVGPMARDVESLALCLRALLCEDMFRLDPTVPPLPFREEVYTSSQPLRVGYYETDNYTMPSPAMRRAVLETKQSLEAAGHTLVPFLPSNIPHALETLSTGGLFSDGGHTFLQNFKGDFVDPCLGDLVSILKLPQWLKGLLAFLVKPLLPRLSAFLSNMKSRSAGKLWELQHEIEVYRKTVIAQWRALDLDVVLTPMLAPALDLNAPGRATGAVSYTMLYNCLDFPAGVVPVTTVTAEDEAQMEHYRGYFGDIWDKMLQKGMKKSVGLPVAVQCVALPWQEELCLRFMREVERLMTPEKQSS
Nature of the assay: Inhibition of FAAH (unknown origin).

Assay [2] has as its target T2, Fatty-acid amide hydrolase 1 (Rattus norvegicus) (UniProt P97612).
T2 sequence (whole entry): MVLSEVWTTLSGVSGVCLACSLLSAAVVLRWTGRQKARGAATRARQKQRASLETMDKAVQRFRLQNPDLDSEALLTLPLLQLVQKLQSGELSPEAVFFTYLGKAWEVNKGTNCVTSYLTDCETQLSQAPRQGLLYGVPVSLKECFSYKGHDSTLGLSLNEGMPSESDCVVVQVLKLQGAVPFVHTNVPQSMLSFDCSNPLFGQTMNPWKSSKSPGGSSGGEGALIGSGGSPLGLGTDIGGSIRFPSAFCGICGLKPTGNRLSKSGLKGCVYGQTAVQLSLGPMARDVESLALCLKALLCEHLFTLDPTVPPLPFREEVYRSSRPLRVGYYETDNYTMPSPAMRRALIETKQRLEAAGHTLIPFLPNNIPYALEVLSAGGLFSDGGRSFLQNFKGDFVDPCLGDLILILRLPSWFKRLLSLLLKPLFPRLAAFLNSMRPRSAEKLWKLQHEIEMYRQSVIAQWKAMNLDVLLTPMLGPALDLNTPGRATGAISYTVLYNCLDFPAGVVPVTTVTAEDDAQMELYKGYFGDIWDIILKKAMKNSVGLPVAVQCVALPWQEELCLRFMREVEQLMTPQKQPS
Nature of the assay: Inhibition of FAAH in rat brain homogenates using [3H]-anandamide as substrate assessed as formation of [3H]-ethanolamine at 10 uM relative to control. The assay is classed as tissue-based. Particulars: values are per cent of control.

Assay [3] has as its system Mus musculus. In words: Inhibition of FAAH in mouse brain at 30 mg/kg, po after 1 hr. Format: functional. Particulars: values are per cent of control.
Assay [4] deals with Mus musculus. Nature of the assay: Inhibition of FAAH in mouse liver at 30 mg/kg, po after 1 hr. Format: functional. Particulars: values are per cent of control.
Assay [5] has as its system Mus musculus. Nature of the assay: Inhibition of FAAH in mouse brain at 30 mg/kg, po after 8 hrs. The assay is classed as functional. To be noted: values are per cent of control.
In assay [6] the test system is Mus musculus. In words: Inhibition of FAAH in mouse liver at 30 mg/kg, po after 24 hrs. Format: functional. Particulars: values are per cent of control.
The test system of assay [7] is Mus musculus. In words: Inhibition of FAAH in mouse brain at 30 mg/kg, po after 4 hrs. Format: functional. Particulars: values are per cent of control.
Assay [8] deals with Mus musculus. In words: Inhibition of FAAH in mouse brain at 30 mg/kg, po after 24 hrs. The assay is classed as functional. Particulars: values are per cent of control.
The test system of assay [9] is Mus musculus. In words: Inhibition of FAAH in mouse liver at 30 mg/kg, po after 8 hrs. The assay is classed as functional. Particulars: values are per cent of control.
The subject of assay [10] is Mus musculus. Nature of the assay: Inhibition of FAAH in mouse liver at 10 mg/kg, po after 24 hrs. Format: functional. To be noted: values are per cent of control.
For assay [11], the system named is Mus musculus. In words: Inhibition of FAAH in mouse brain at 10 mg/kg, po after 24 hrs. The assay is classed as functional. Particulars: values are per cent of control.
Assay [12] concerns Mus musculus. In words: Inhibition of FAAH in mouse liver at 10 mg/kg, po after 8 hrs. To be noted: values are per cent of control. Format: functional.
The subject of assay [13] is Mus musculus. Nature of the assay: Inhibition of FAAH in mouse brain at 10 mg/kg, po after 8 hrs. The assay is classed as functional. Particulars: values are per cent of control.
In assay [14] the test system is Mus musculus. Nature of the assay: Inhibition of FAAH in mouse brain at 10 mg/kg, po after 1 hr. The assay is classed as functional. Particulars: values are per cent of control.
Assay [15] relates to Mus musculus. Nature of the assay: Inhibition of FAAH in mouse brain at 10 mg/kg, po after 4 hrs. The assay is classed as functional. Particulars: values are per cent of control.
The subject of assay [16] is Mus musculus. In words: Inhibition of FAAH in mouse liver at 10 mg/kg, po after 4 hrs. Particulars: values are per cent of control. Format: functional.
The subject of assay [17] is Mus musculus. Nature of the assay: Inhibition of FAAH in mouse liver at 10 mg/kg, po after 1 hr. The assay is classed as functional. To be noted: values are per cent of control.
In assay [18] the test system is Mus musculus. In words: Inhibition of FAAH in mouse liver at 30 mg/kg, po after 4 hrs. Particulars: values are per cent of control. Format: functional.

As for `COc1nn(-c2ccc(Oc3ccccc3)cc2)c(=O)o1`, in assay [1], the midpoint of inhibition, the IC50, lay at 6.1 nM.

In the case of `O=c1oc(-c2ccccc2)nn1-c1ccccc1`, in assay [2], the residual activity came out at 110%.

For the molecule `O=c1oc(Oc2ccc(Cl)cc2)nn1-c1ccccc1`, the residual activity at 30 mg/kg in assay [3] stood at 110%; in [4], 81%.

As for `O=c1oc(Oc2ccc([N+](=O)[O-])cc2)nn1-c1ccc(O)cc1`, the residual activity at 30 mg/kg was 96% in [3] and 45% in assay [4].

With `COc1ccc(Oc2nn(-c3ccccc3)c(=O)o2)cc1`, the residual activity at 30 mg/kg is 108% in assay [3] and 94% in assay [4].

As for `O=c1oc(Oc2ccc(Cl)cc2)nn1-c1ccc(O)cc1`, the residual activity at 30 mg/kg in assay [3] was 38%; in assay [4], 20%.

Consider `O=c1oc(Oc2ccc(F)cc2F)nn1-c1cccc(O)c1`, for which the residual activity at 30 mg/kg in assay [3] came to 94%; in assay [4] it was 12%.

As for `O=c1oc(Oc2ccc(Cl)cc2)nn1-c1ccc(O)cc1F`, the residual activity at 30 mg/kg is 57% in assay [5]; 79% in [6]; 34% in assay [7]; 80% in assay [8]; 64% in assay [3]; 4% in [4]. Moreover, in assay [9], the residual activity at 30 mg/kg stood at 7%.

`O=c1oc(Oc2ccc(Cl)cc2)nn1-c1ccc(O)c(O)c1`: the residual activity at 10 mg/kg was 91% in [10]; 102% in [11]; 38% in [12]; 96% in assay [13]; 99% in assay [14]; 90% in assay [15]. Also, the residual activity at 10 mg/kg in [16] stood at 17%; in assay [17], 10%. The residual activity at 30 mg/kg in [3] is 83%; in assay [4], 5%.

As to `O=c1oc(Oc2ccc(F)cc2F)nn1-c1ccc(O)c(O)c1`, the residual activity at 10 mg/kg in assay [10] stood at 79%; in [11], 104%; in [12], 27%; in assay [13], 103%; in assay [14] it was 102%; in assay [15] it was 100%. In addition, the residual activity at 10 mg/kg in assay [16] turned out to be 18%; in assay [17], 6%. Further, the residual activity at 30 mg/kg was found to be 66% in assay [3] and 4% in assay [4].

As to `O=c1oc(Oc2ccc(F)cc2)nn1-c1ccc(O)cc1`, the residual activity at 30 mg/kg came to 82% in assay [3] and 30% in assay [4].

For the molecule `O=C(c1ccccc1)c1nn(-c2ccccc2)c(=O)o1`, in [2], the residual activity came to 84%.

`O=c1oc(Oc2ccccc2F)nn1-c1ccc(O)cc1`: the residual activity at 30 mg/kg in assay [3] came to 94%; in assay [4], 44%.

On to `O=c1oc(OCc2ccccc2)nn1Cc1ccccc1`, for which, in [2], the residual activity was found to be 86%.

Take `O=c1oc(Oc2ccc(Cl)cc2Cl)nn1-c1ccc(O)cc1`: the residual activity at 30 mg/kg in [18] was 18%; in [5], 52%; in assay [6] it was 103%; in assay [7] it was 72%; in [8], 99%; in assay [3] it was 59%. Besides, the values for the residual activity at 30 mg/kg in [4] and in assay [9] were 9% and 11%, respectively.

On to `O=c1oc(N2CCOCC2)nn1-c1cccc(Cl)c1`, for which the residual activity in [2] worked out at 104%.

On to `O=c1oc(Oc2ccc(F)cc2F)nn1-c1ccc(O)cc1`, for which the residual activity at 30 mg/kg in [3] came to 86%; in assay [4], 12%.

`O=c1oc(Oc2ccc(F)cc2F)nn1-c1ccccc1`: the residual activity at 30 mg/kg in [3] came out at 94%; in assay [4] it was 39%.

Turning to `O=c1oc(Oc2ccccc2)nn1-c1cccc(O)c1`, the values for the residual activity at 30 mg/kg in assay [3] and in assay [4] were 95% and 33%, respectively.

Regarding `COc1cc(Br)ccc1Oc1nn(-c2ccccc2)c(=O)o1`, the residual activity at 30 mg/kg in assay [3] is 101%; in assay [4] it was 83%.

Regarding `O=c1oc(Cc2ccccc2)nn1-c1ccccc1`, in assay [2], the residual activity was 97%.

On to `O=c1oc(Oc2ccccc2)nn1-c1ccccc1F`, for which the residual activity at 30 mg/kg in [4] was found to be 72%.

Consider `O=c1oc(Oc2ccccc2)nn1-c1ccc(O)cc1`, for which the residual activity at 30 mg/kg in assay [3] is 97%; in assay [4], 46%.

In the case of `COc1nn(-c2cccc(Cl)c2)c(=O)o1`, the residual activity in [2] came to 5%.

`O=c1oc(Oc2ccc(Cl)cc2)nn1-c1cccc(O)c1`: the residual activity at 30 mg/kg in assay [3] is 100%; in assay [4], 10%.

For the molecule `O=c1oc(Oc2ccccc2)nn1-c1ccc(F)cc1F`, the residual activity at 30 mg/kg amounted to 86% in assay [3] and 65% in assay [4].

Turning to `O=c1oc(Oc2ccc(F)cc2)nn1-c1cccc(O)c1`, the values for the residual activity at 30 mg/kg in assay [3] and in [4] were 99% and 24%, respectively.
